The source of these data is patent US20230103774A1, “USE OF KAURANE COMPOUNDS IN PREPARATION OF DRUG FOR PREVENTION AND TREATMENT OF SEPSIS AND MULTIPLE ORGAN DAMAGE” (KEY-PHARMA BIOMEDICAL INC., priority 2020, published 2023).

“Also recorded” adds a separate entry of the source.

The subject of data set [1] is Animals that survived sepsis. As to the kind of experiment: fibrosis of affected organs after recovery from sepsis. In kind it is in vivo.
Data set [2] concerns LPS-induced septic mice. Description: cardiac function of LPS-induced septic mice by echocardiography (Vevo2100). In kind it is in vivo. To be noted: for ejection fraction (EF) / fractional shortening (FS): 6 h after i.p. LPS, versus LPS group. An excerpt:
Six hours after intraperitoneal injection of LPS, mice in each group were weighed and anesthetized, and the cardiac function of the mice was detected by Vevo2100 imaging system. The mice were put into the recumbent position and fixed on a constant temperature heating plate under heart rate of 400-500 times per minute. The limbs were fixed on the four metal poles with tape. The ultrasound probe was placed in the left thoracic region of the mouse, and the short axis of the parasternal left ventricle was obtained by 2D ultrasound. The left ventricular motion was recorded at the papillary muscle level by M-ultrasound, and heart rate (HR), left ventricular systolic diameter (LVID: FS), left ventricular diastolic diameter (LVID: d), left ventricular systolic diameter (LVID: FS), left ventricular diastolic diameter (LVID: Fd), and left ventricular diastolic […] thickness (LVPWF: FdF) were measured. Using Vevo2100 small animal ultrasound system software to process and analyze the acquired images. Determination of mouse plasma myocardial injury indexes (LDH and CK)
Ejection Fractions (EF), refers to the percentage of cardiac stroke volume in ventricular end-diastolic volume, which is an indicator of myocardial contractility. […] The left ventricular short-axis shortening rate (fractional shortening, FS) refers to the ratio of the inner diameter of the ventricle at the end systole to the inner diameter of the ventricular end diastole, and also reflects the systolic function of the heart (FS=(left ventricular end-diastolic diameter (LVDd)−Left ventricular end-systolic diameter (LVDs))/left ventricular end-diastolic diameter×100%).

For data set [3] the following is noted: dose of 5 mg/kg for adults; cited from earlier work.
Data set [4] deals with LPS-induced lung injury mice. As to the kind of experiment: lung function by whole body plethysmography (Penh, EF50, TV). In kind it is in vivo. The procedure:
The lung function of each group of mice was measured at 6 h. Mice were placed in a closed chamber of a whole body plethysmograph (BUXCO, USA), and the plethysmographic chamber was connected to a sensor. […] In this experiment, we used Buxco's pulmonary function testing system to measure and record the 50% tidal expiratory volume, tidal volume, and changes in airway responsiveness in each group of mice by whole body plethysmography to assess lung function. This method offers a real-time lung function of mice under non-invasive conditions. Penh is a pulmonary function parameter related to airway resistance and intrapleural pressure, and Penh is used as an index to evaluate airway response.

Data set [5] deals with LPS-induced septic mice. As to the kind of experiment: renal function of LPS-induced septic mice (plasma BUN, Crea, histopathology). In kind it is in vivo. The source says:
The prepared plasma of each group was taken to determine the levels of urea nitrogen (BUN) and creatinine (Crea) in plasma by a microplate reader following the manufacture's instruction.

The nature of a further data set: solubility. In kind it is physicochemical. To be noted: sodium salt versus compound A.
The subject of the next data set is TNF-α, IL-6 and IL-1β. Description: pro-inflammatory cytokine expression in plasma of septic mice. In kind it is in vivo. To be noted: 6 h after intraperitoneal injection of LPS; different doses.
The test system of data set [6] is LPS-induced septic Balb/C mice. Description: mortality of LPS-induced septic Balb/C mice after intraperitoneal compound A. In kind it is in vivo. To be noted: for improved the survival rate of mice: P<0.01. The procedure: This example mainly observes the effect of intraperitoneal injection of different doses of Compound A on the mortality of LPS-septic Balb/C mice.
To observe the effect of intraperitoneal injection of different doses of compound A on the mortality of LPS-induced sepsis mice.
The mice were randomly divided into 6 groups: • (1) Control group: intraperitoneal injection of physiological saline (solvent) (0.1 ml/10 g) once a day for three consecutive days, 1 hour after intraperitoneal injection on the third day, intraperitoneal injection of physiological saline (0.2 ml/10 g); • (2) LPS group: intraperitoneal injection of saline (0.1 ml/10 g), 1 time/d for 3 consecutive days, 1 hour after intraperitoneal injection on the third day, intraperitoneal injection of LPS (20 mg/kg, 0.1 ml/10 g). • (3) Compound A (5 mg/kg)+LPS group: intraperitoneal injection of compound A (5 mg/kg, 0.1 ml/10 g), 1 time/d for 3 consecutive days, 1 hour after intraperitoneal injection on the third day, intraperitoneal injection LPS (20 mg/kg, 0.1 ml/10 g). • (4) Compound A (10 mg/kg)+LPS group: intraperitoneal injection of compound A (10 mg/kg, 0.1 ml/10 g), 1 time/d for 3 consecutive days, 1 hour after intraperitoneal injection on the third day, intraperitoneal injection LPS (20 mg/kg, 0.1 ml/10 g). • (5) Compound A (20 mg/kg)+LPS group: intraperitoneal injection of compound A (20 mg/kg, 0.1 ml/10 g), 1 time/d for 3 consecutive days, 1 hour after intraperitoneal injection on the third day, intraperitoneal injection LPS (20 mg/kg, 0.1 ml/10 g). • (6) Compound A (60 mg/kg)+LPS group: intraperitoneal injection of compound A (60 mg/kg, 0.1 ml/10 g), 1 time/d for 3 consecutive days, 1 hour after intraperitoneal injection on the third day, intraperitoneal injection LPS (20 mg/kg, 0.1 ml/10 g).
After intraperitoneal injection of LPS, the survival of mice in each group was observed every 12 h for six consecutive days.
Based on the previously reports, the dose of 5 mg/kg for adults is an acceptable and safe dose, and the maximum blood concentration reaches 20 μM, which is equivalent to 45 mg/kg in mice. Accordingly, 10 mg/kg STV-Na was employed for further studies.

Data set [7] has as its system macrophage M1 and M2 in cardiac tissue. Description: ROS and M1/M2 macrophages in heart of septic mice. In kind it is in vivo.
Data set [8] concerns lactate dehydrogenase (LDH) and creatine kinase (CK) in plasma. Description: plasma myocardial injury indexes LDH and CK. In kind it is in vivo. As to conditions: LPS-induced septic mice, versus LPS group, p<0.01. The procedure: Serum lactate dehydrogenase (LDH) and creatine kinase (CK) were determined according to the istructions provided by Nanjing Jiancheng Biotechnology Co., Ltd.

Another data set concerns HIF-1α. Description: HIF-1α expression after LPS and macrophage regulation.
For another data set, the system named is mitochondria. As to the kind of experiment: mitochondrial protection during sepsis. To be noted: administration during sepsis.
Data set [9] relates to white blood cells, neutrophils and monocytes. Description: white blood cells, neutrophils and monocytes in LPS induced septic mice. In kind it is in vivo. To be noted: versus LPS group.
In a further data set the test system is septic lung tissues. As to the kind of experiment: acute lung injury caused by sepsis (lung tissue, blood oxygen saturation). To be noted: septic mice. In kind it is in vivo.
Data set [10] deals with LPS-induced septic mice. Description: liver function of LPS-induced septic mice (plasma ALT, AST, SOD, histopathology). In kind it is in vivo. The source says: The prepared plasma of each group was taken to determine the levels of alanine aminotransferase (ALT), aspartate aminotransferase (AST) and superoxide dismutase (SOD) in plasma by a microplate reader according to the manufacture's instruction.

In data set [11] the test system is primary peritoneal macrophages. As to the kind of experiment: flow cytometry of M1/M2 primary peritoneal macrophages of LPS induced septic mice. In kind it is in vivo. To be noted: 6 hours after 20 mg/kg LPS i.p., versus LPS group. The procedure:
This example illustrates the effect of compound A on macrophage polarization. • (1) Grouping of experimental animals: 6-8 week old Balb/c male mice were randomly divided into 4 groups after one week of adaptive feeding, 10 mice in each group, namely the Control group, the LPS group, the compound A group and the dexamethasone group. The LPS group, compound A group and dexamethasone group were given intraperitoneally injection of a 20 mg/kg of LPS. […]
For orientation: A flow cytometer gives signals particle by particle.

The conditions of data set [12]: under certain conditions in vitro; cited from earlier work.
In data set [13] the test system is LPS-induced septic mice. As to the kind of experiment: spleen/body weight ratio after LPS. To be noted: even lower than that of the Control group. In kind it is in vivo. On the procedure:
The fur color, consciousness, physical activity, diet, etc. of the mice were observed, and the heart, liver, spleen, lung and kidney of the mice were weighed 6 hours after intraperitoneal injection of LPS.

Where [14] appears, read: pretreated septic mice versus LPS group.
Setting [15] is: 6 hours after LPS injection, versus LPS group, p<0.01.

Regarding `C[C@@]12CC[C@@H]3[C@@](CC[C@H]4[C@@]3(C)CCC[C@@]4(C)C(=O)O)(CC1=O)C2` [Compound A, (4α, 8β, 13 β)-13-METHYL-16-OXO-17-Norkauran-18-OIC acid], the “fibrosis and collagen deposition in the lungs, heart, liver, and kidney” value in data set [1] is on record as “marked reduction”. Further, in the data set on LPS-induced septic mice [2], the “ejection fraction (EF)” value is recorded as “significantly improved” and the “fractional shortening (FS)” value is given as “significantly higher”. Further, in the data set on LPS-induced septic mice [2] (listed as STV-Na), the “ejection fraction (EF)” value is listed as “markedly increased” and the “fractional shortening (FS)” value is recorded as “markedly increased”. Further, in the data set on LPS-induced septic mice [2] (setting [14]), the CO entry is “markedly increased” and the SV result is “markedly increased”. Further, the maximum blood concentration in [3] is 20 µM. Besides, in [4] (setting [15]), the “EF50 (expiratory flow at 50% tidal volume)” value is “significantly higher” and the “TV (tidal volume)” value is “significantly higher”. In addition, the “airway reactivity (Penh)” value in data set [4] (septic mice) was “returned to normal”. Moreover, in the data set with LPS-induced septic mice [5] (LPS-induced septic mice), the “creatinine (Crea) in plasma” value was “significantly reduced” and the “urea nitrogen (BUN) in plasma” value is listed as “significantly decreased”. Also, the “urea nitrogen (BUN) in plasma” value in the data set with LPS-induced septic mice [5] (LPS-induced septic mice, listed as compound A) is reported as “significantly reduced”. In addition, the “lesions in the glomerulus and renal tubules (histopathological staining)” value in the data set on LPS-induced septic mice [5] (septic animals) was “milder than those in the model group”. In the data set “solubility”, the solubility result was “better solubility”. In the data set with TNF-α, IL-6 and IL-1β, the “TNF-α, IL-1β and IL-6 in plasma” value was “dose-dependently decreased”. Besides, in [6] (5 mg/kg i.p. 1 time/d for 3 days, then LPS 20 mg/kg i.p., no significant difference with the LPS group (p>0.05)), the survival of mice entry is “all mice in the 5 mg/kg compound A group died”. In addition, the “improved the survival rate of mice” value in [6] (10 mg/kg i.p. 1 time/d for 3 days, then LPS 20 mg/kg i.p.) is recorded as 52%. In data set [6] (20 mg/kg i.p. 1 time/d for 3 days, then LPS 20 mg/kg i.p.), the “improved the survival rate of mice” value is on record as 67%. Also, the “survival rate of mice” value in data set [6] (10-20 mg/kg, large dose of LPS i.p., up to more than two-thirds surviving) is reported as “significantly improved”. Besides, the “level of ROS in heart” value in [7] is on record as “inhibited”. Besides, the “biomarkers of M1 and M2 macrophages and number of macrophages in cardiac tissue” value in [7] (M1: IL-1β, McP1, CD11c, M2: Ym1, CD206) is reported as “significantly decreased”. Moreover, in data set [8], the “CK level in plasma” value is recorded as “significantly decreased” and the “LDH level in plasma” value was “downward trend”. The “LDH level in plasma” value in [8] (listed as STV-Na) was “significantly decreased”. In addition, the HIF-1α expression result in the data set on HIF-1α (after LPS injection) is recorded as “reduced”. Also, the “metabolic regulation effect on macrophages” value in the data set on HIF-1α (with DMOG, a competitive inhibitor of HIF-1α prolyl hydroxylase) is on record as “abolished”. In the data set with mitochondria, the “cytochrome C release” value was “reduce”; the “inflammation cytokine TNF-α and IL-1β” value is “inhibiting”; the mitochondrial membrane potential entry was “increase”; the number of mitochondria entry was “increase”. Moreover, the “production of superoxide such as NO in cells” value in the data set on mitochondria was “reduce”. In [9], the “level of white blood cells, neutrophils and monocytes” value was “significantly reduced”. Further, in the data set with septic lung tissues, the blood oxygen saturation result is “significantly increased”; the “lung function / acute lung injury and failure caused by sepsis” value is given as “significantly recovered”; the lung inflammation entry was “significantly reduced”; the lung tissue structure result is “basically normal”. For the same compound, in the data set with LPS-induced septic mice [10] (LPS-induced septic mice), the “alanine aminotransferase (ALT) in plasma” value was “significantly decreased”, the “aspartate aminotransferase (AST) in plasma” value is “significantly decreased” and the “superoxide dismutase (SOD) in plasma” value is reported as “significantly decreased”. Moreover, the “infiltration of inflammatory cells in liver (histopathological staining)” value in the data set on LPS-induced septic mice [10] (septic animals) is listed as “reduced”. For the same compound, in data set [11], the “M1 peritoneal macrophages (F4/80+CD11c+ CD206−)” value is “significantly inhibit; also recorded: significantly reduced” and the “M2 peritoneal macrophages (F4/80+CD11c− CD206+)” value was “significantly inhibit; also recorded: significantly reduced”.
In the case of `C=C1C[C@@]23CC[C@H]4[C@@](C)(CCC[C@@]4(C)C(=O)O)[C@@H]2CC[C@]1(O)C3` [Compound B, ENT13Hyrdoxyaur-16-EN-18-Oic acid], the mutagenicity entry in data set [12] is recorded as “mutagenic”.
On to `C[C@@H]1C[C@H]2[C@@H]3CCC4=CC(=O)C=C[C@]4(C)[C@@]3(F)[C@@H](O)C[C@]2(C)[C@@]1(O)C(=O)CO` [dexamethasone], for which the spleen/body weight ratio result in the data set on LPS-induced septic mice [13] is “significantly reduced”.
